In ChEMBL document CHEMBL1151380, “Recent Studies on Bioactive Compounds From Plants” (J Nat Prod, 1982):
Active and inactive are the calls of the source. The calls are words filed in the database; no cut-off is given here.

How the values were obtained:
[1] = tested on: Spodoptera exempta; experiment: Antifeedant activity in Spodoptera exempta by choice test; format: functional
[2] = tested on: Spodoptera littoralis; experiment: Antifeedant activity in Spodoptera littoralis by choice test; format: functional
[3] = tested on: Schistocerca gregaria; experiment: Antifeedant activity in Schistocerca gregaria at 0.01% dry weight of fiber disc containing 5% sucrose by choice test; format: functional
[4] = tested on: Locusta migratoria; experiment: Antifeedant activity in Locusta migratoria at 0.01% dry weight of fiber disc containing 5% sucrose by choice test; format: functional
[5] = tested on: Spodoptera eridania; experiment: Antifeedant activity in Spodoptera eridania by choice test; format: functional, organism-based
[6] = tested on: Epilachna varivestis; experiment: Antifeedant activity in Epilachna varivestis by choice test; format: functional, organism-based
[7] = tested on: Schistocerca nitens; experiment: Antifeedant activity in Schistocerca vaga by choice test; format: functional, organism-based
[8] = tested on: Manduca sexta; experiment: Antifeedant activity in Manduca sexta by choice test; format: functional, organism-based
[9] = tested on: Saccharomyces cerevisiae; experiment: Antimicrobial activity against Saccharomyces cerevisiae; format: functional
[10] = tested on: Cyberlindnera jadinii; experiment: Antimicrobial activity against Candida utilis; format: functional
[11] = tested on: Sclerotinia sclerotiorum; experiment: Antimicrobial activity against Sclerotinia libertiana; format: functional
[12] = tested on: Mucor mucedo; experiment: Antimicrobial activity against Mucor mucedo; format: functional
[13] = tested on: Biomphalaria glabrata; experiment: Molluscicidal activity against Biomphalaria glabrata after 2 hrs; format: functional
[14] = tested on: Biomphalaria pfeifferi; experiment: Molluscicidal activity against Biomphalaria pfeifferi after 2 hrs; format: functional
[15] = tested on: Radix natalensis; experiment: Molluscicidal activity against Lymnaea natalensis after 2 hrs; format: functional
[16] = tested on: KB; experiment: Cytotoxicity against human KB cells; format: functional
[17] = Acute toxicity in sc dosed mouse; format: organism-based; settings: in vivo

CC1(C)CCC[C@@]2(C)[C@H]1CC=C(C=O)[C@]2(O)C=O [WARBURGANAL] gave an Activity [1] of 0.1 ppm, an Activity [2] of 10 ppm and an Activity [3] of 85%. The Activity [4] was 85%, the Activity [5] was “inactive” and the Activity [6] was “inactive”. For the same compound, the Activity [7] was “inactive”, the Activity [8] was “inactive” and the Activity [9] was 12.5 µg/mL. It also gave an Activity [10] of 3.1 µg/mL, an Activity [11] of 50 µg/mL and an Activity [12] of 100 µg/mL. It also gave an Activity [13] of 5 ppm, an Activity [14] of 5 ppm and an Activity [15] of 10 ppm. The Activity [16] was 0.01 µg/mL and the LD50 [17] was 20.4 mg/kg.
